Assay results from patent US20240382482A1, “PLASMA KALLIKREIN INHIBITORS” (TAKEDA PHARMACEUTICAL COMPANY LIMITED, priority 2021, published 2024).
Where a name gives a salt, the structure may show the parent alone.

molecular target: human activated kallikrein enzyme (Homo sapiens, UniProt P03952); test: Inhibition of human activated kallikrein enzyme, fluorogenic peptide substrate assay (500 pM enzyme format); type: biochemical; details: 500 pM activated kallikrein, 300 μM PFR-AMC substrate, 30 min preincubation, 10 min reaction, room temperature; read-out: Primary Dose Response Assay: Average EC50
Sequence (P03952 391-638 limits assumed): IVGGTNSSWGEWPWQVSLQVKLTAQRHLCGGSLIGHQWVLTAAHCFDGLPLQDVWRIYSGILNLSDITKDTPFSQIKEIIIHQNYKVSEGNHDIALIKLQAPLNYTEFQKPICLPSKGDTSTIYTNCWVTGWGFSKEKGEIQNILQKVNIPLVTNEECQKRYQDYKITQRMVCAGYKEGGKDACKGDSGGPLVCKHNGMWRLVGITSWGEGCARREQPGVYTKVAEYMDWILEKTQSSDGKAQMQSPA
Sequence (P03952 20-390 partner limits assumed): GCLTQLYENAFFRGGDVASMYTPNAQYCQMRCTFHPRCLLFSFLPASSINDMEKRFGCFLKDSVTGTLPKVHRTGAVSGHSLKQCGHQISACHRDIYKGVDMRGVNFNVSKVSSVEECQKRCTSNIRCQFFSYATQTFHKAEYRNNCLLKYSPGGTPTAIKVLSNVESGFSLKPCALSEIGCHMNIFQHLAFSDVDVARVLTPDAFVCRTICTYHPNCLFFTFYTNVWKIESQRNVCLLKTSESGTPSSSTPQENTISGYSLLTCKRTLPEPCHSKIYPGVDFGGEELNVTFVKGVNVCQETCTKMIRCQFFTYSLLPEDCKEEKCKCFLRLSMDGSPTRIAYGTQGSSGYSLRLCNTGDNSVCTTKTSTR
Procedure: Compounds were evaluated for inhibition of the human activated kallikrein enzyme in two formats of an assay employing a fluorogenic peptide substrate. In one assay format, the concentrations of reagents were as follows: 20 mM Tris pH 7.5, 1 mM EDTA, 150 mM sodium chloride, 0.1% PEG-400, 0.1% Triton X-100, 500 pM activated kallikrein enzyme, 300 μM Pro-Phe-Arg-7-amido-4-methylcoumarin (PFR-AMC) substrate. Prior to reaction initiation with substrate, enzyme and inhibitors were preincubated for 30 min at room temperature. After initiation with substrate, reactions were incubated for 10 min at room temperature and fluorescence emission at 460 nm from 380 nm excitation measured with a microplate reader. In another assay format, the concentrations of reagents were as follows: 20 mM Tris pH 7.5, 1 mM EDTA, 150 mM sodium chloride, 0.1% PEG-400, 0.1% Triton X-100, 5 pM activated kallikrein enzyme, 300 uM PFR-AMC substrate. Prior to reaction initiation with substrate, enzyme and inhibitors were preincubated for 30 min at room temperature. After initiation with substrate, reactions were incubated for 18 hr at room temperature and fluorescence emission at 460 nm from 380 nm excitation measured with a microplate reader.
Table 1 provides the results of the assay in the format with 500 pM activated kallikrein assay. For the compounds listed in Table 1, the EC50 values are reported according to the following ranges: A≤5.0 nM; 5.0 nM<B≤50 nM; 50 nM<C≤500 nM; 500 nM<D≤9000 nM; 9000 nM<E.

Row | SMILES | EC50
1 | O=C(NCc1ncn2ccc(Cl)cc12)c1cnnc(NCc2cn3cc(C4CC4)ccc3n2)c1 [Example 65, N-((7-chloroimidazo[1,5-a]pyridin-1-yl)methyl)-6-(((6-cyclopropylimidazo[1,2-a]pyridin-2-yl)methyl)amino)pyridazine-4-carboxamide] | 5 to 50 nM
2 | CC(C(=O)Nc1cc(NCc2cn3cc(C4CC4)ccc3n2)ncn1)N(C)c1cccc(Cl)c1 (stereo not shown) [Example 9, 2-((3-chlorophenyl)(methyl)amino)-N-(6-(((6-cyclopropylimidazo[1,2-a]pyridin-2-yl)methyl)amino)pyrimidin-4-yl)propanamide] | 500 to 9000 nM
3 | O=C(Cc1cnc2[nH]cc(Cl)c2c1)Nc1cc(NCc2cn3cc(C4CC4)ccc3n2)ncn1 [Example 129, 2-(3-chloro-1H-pyrrolo[2,3-b]pyridin-5-yl)-N-(6-(((6-cyclopropylimidazo[1,2-a]pyridin-2-yl)methyl)amino)pyrimidin-4-yl)acetamide] | 50 to 500 nM
4 | O=C(Cc1ncn2ccc(Cl)cc12)Nc1cc(OCc2cn3cc(C4CC4)ccc3n2)ccn1 [Example 23, 2-(7-chloroimidazo[1,5-a]pyridin-1-yl)-N-(4-((6-cyclopropylimidazo[1,2-a]pyridin-2-yl)methoxy)pyridin-2-yl)acetamide] | 5 to 50 nM
5 | O=C(Cc1ncn2ccc(Cl)cc12)Nc1ccnc(NCc2cn3cc(C4CC4)ccc3n2)n1 [Example 16, 2-(7-chloroimidazo[1,5-a]pyridin-1-yl)-N-(2-(((6-cyclopropylimidazo[1,2-a]pyridin-2-yl)methyl)amino)pyrimidin-4-yl)acetamide] | ≤ 5 nM
6 | O=C(CC1(c2cccc(Cl)c2)CC1)Nc1cc(NCc2cn3cc(C4CC4)ccc3n2)ccn1 [Example 126, 2-(1-(3-chlorophenyl)cyclopropyl)-N-(4-(((6-cyclopropylimidazo[1,2-a]pyridin-2-yl)methyl)amino)pyridin-2-yl)acetamide] | 500 to 9000 nM
7 | Cc1cc(C(=N)N)cc(C)c1CNc1cc(OCc2cn3cc(C4CC4)cc(CCC(=O)O)c3n2)ncn1 [Example 97, 3-(2-(((6-((4-carbamimidoyl-2,6-dimethylbenzyl)amino)pyrimidin-4-yl)oxy)methyl)-6-cyclopropylimidazo[1,2-a]pyridin-8-yl)propanoic acid] | ≤ 5 nM
8 | O=C(Cc1ncn2ccc(Cl)cc12)Nc1cc(NCc2cn3cc(C4CC4)cc(CO)c3n2)ncn1 [Example 44, 2-(7-chloroimidazo[1,5-a]pyridin-1-yl)-N-(6-(((6-cyclopropyl-8-(hydroxymethyl)imidazo[1,2-a]pyridin-2-yl)methyl)amino)pyrimidin-4-yl)acetamide] | ≤ 5 nM
9 | CCOC(=O)C(C)(C)Cc1nc(NCc2c(C)cc(C(=N)N)cc2C)cc(OCc2cn3cc(C4CC4)ccc3n2)n1 [Example 93, ethyl 3-(4-((4-carbamimidoyl-2,6-dimethylbenzyl)amino)-6-((6-cyclopropylimidazo[1,2-a]pyridin-2-yl)methoxy)pyrimidin-2-yl)-2,2-dimethylpropanoate] | ≤ 5 nM
10 | CCOC(=O)CCc1nc(NCc2c(C)cc(C(=N)N)cc2C)cc(OCc2cn3cc(C4CC4)ccc3n2)n1 [Example 70, ethyl 3-(4-((4-carbamimidoyl-2,6-dimethylbenzyl)amino)-6-((6-cyclopropylimidazo[1,2-a]pyridin-2-yl)methoxy)pyrimidin-2-yl)propanoate formic acid salt] | ≤ 5 nM
11 | CCOC(=O)C(C)(C)Cc1cc(C2CC2)cn2cc(CNc3cc(NC(=O)Cc4ncn5ccc(Cl)cc45)ncn3)nc12 [Example 47, ethyl 3-(2-(((6-(2-(7-chloroimidazo[1,5-a]pyridin-1-yl)acetamido)pyrimidin-4-yl)amino)methyl)-6-cyclopropylimidazo[1,2-a]pyridin-8-yl)-2,2-dimethylpropanoate] | 5 to 50 nM
12 | Cc1cc(C(=N)N)cc(C)c1CNc1cc(OCc2cn3cc(C4CC4)cc(CC(=O)O)c3n2)ncn1 [Example 95, 2-(2-((6-(4-carbamimidoyl-2,6-dimethylbenzylamino)pyrimidin-4-yloxy)methyl)-6-cyclopropylimidazo[1,2-a]pyridin-8-yl)acetic acid] | ≤ 5 nM
13 | CCOC(=O)Cc1cc(C2CC2)cn2cc(COc3cc(NCc4c(C)cc(C(=N)N)cc4C)ncn3)nc12 [Example 94, ethyl 2-(2-((6-(4-carbamimidoyl-2,6-dimethylbenzylamino)pyrimidin-4-yloxy)methyl)-6-cyclopropylimidazo[1,2-a]pyridin-8-yl)acetate] | ≤ 5 nM
14 | O=S(=O)(Nc1cc(NCc2cn3cc(C4CC4)ccc3n2)ncn1)C1CC1c1cccc(Cl)c1 (stereo not shown) [Example 67, 2-(3-chlorophenyl)-N-(6-(((6-cyclopropylimidazo[1,2-a]pyridin-2-yl)methyl)amino)pyrimidin-4-yl)cyclopropane-1-sulfonamide] | 500 to 9000 nM
15 | COc1ccc(C#N)c(CC(=O)Nc2cc(NCc3cn4cc(C5CC5)ccc4n3)ncn2)c1F [Example 3, 2-(6-cyano-2-fluoro-3-methoxyphenyl)-N-(6-(((6-cyclopropylimidazo[1,2-a]pyridin-2-yl)methyl)amino)pyrimidin-4-yl)acetamide] | 500 to 9000 nM
16 | O=C(Cc1nncc2ccc(Cl)cc12)Nc1cc(NCc2cn3cc(C4CC4)ccc3n2)ncn1 [Example 105, 2-(7-chlorophthalazin-1-yl)-N-(6-(((6-cyclopropylimidazo[1,2-a]pyridin-2-yl)methyl)amino)pyrimidin-4-yl)acetamide] | 5 to 50 nM
17 | CN(Cc1cn2cc(C3CC3)cc(N3CCCC3=O)c2n1)c1cc(NC(=O)Cc2ncn3ccc(Cl)cc23)ncn1 [Example 18] | ≤ 5 nM
18 | O=C(Cc1ncn2ccc(Cl)cc12)Nc1cncnc1NCc1cn2cc(C3CC3)ccc2n1 [Example 42, 2-(7-chloroimidazo[1,5-a]pyridin-1-yl)-N-(4-(((6-cyclopropylimidazo[1,2-a]pyridin-2-yl)methyl)amino)pyrimidin-5-yl)acetamide] | 50 to 500 nM
19 | N#Cc1ccc(Cl)cc1CC(=O)Nc1cc(NCc2cn3cc(C4CC4)ccc3n2)ncn1 [Example 2, 2-(5-chloro-2-cyanophenyl)-N-(6-(((6-cyclopropylimidazo[1,2-a]pyridin-2-yl)methyl)amino)pyrimidin-4-yl)acetamide] | 500 to 9000 nM
20 | COc1ccc(CNc2cc(NCc3cn4cc(C5CC5)ccc4n3)ncn2)c(OC)c1 [Example 136, N^4-((6-cyclopropylimidazo[1,2-a]pyridin-2-yl)methyl)-N^6-(2,4-dimethoxybenzyl)pyrimidine-4,6-diamine] | 500 to 9000 nM
21 | CCOC(=O)c1nc(NCc2c(C)cc(C(=N)N)cc2C)cc(OCc2cn3cc(C4CC4)ccc3n2)n1 [Example 82, ethyl 4-((4-carbamimidoyl-2,6-dimethylbenzyl)amino)-6-((6-cyclopropylimidazo[1,2-a]pyridin-2-yl)methoxy)pyrimidine-2-carboxylate] | ≤ 5 nM
22 | COc1ccc(-n2cnnn2)c(CNc2cc(C(F)(F)c3cn4cc(C5CC5)ccc4n3)ncn2)c1F [Example 62, 6-((6-cyclopropylimidazo[1,2-a]pyridin-2-yl)difluoromethyl)-N-(2-fluoro-3-methoxy-6-(1H-tetrazol-1-yl)benzyl)pyrimidin-4-amine] | 500 to 9000 nM
23 | O=C(Cc1ncn2ccc(Cl)cc12)Nc1cc(C(O)c2cn3cc(C4CC4)ccc3n2)ncn1 (stereo not shown) [Example 59, 2-(7-chloroimidazo[1,5-a]pyridin-1-yl)-N-(6-((6-cyclopropylimidazo[1,2-a]pyridin-2-yl)(hydroxy)methyl)pyrimidin-4-yl)acetamide] | ≤ 5 nM
24 | CC(Nc1cc(NC(=O)Cc2ncn3ccc(Cl)cc23)ncn1)c1cn2cc(C3CC3)ccc2n1 (stereo not shown) [Example 45, 2-(7-chloroimidazo[1,5-a]pyridin-1-yl)-N-(6-((1-(6-cyclopropylimidazo[1,2-a]pyridin-2-yl)ethyl)amino)pyrimidin-4-yl)acetamide] | 5 to 50 nM
25 | O[C@H]1C[C@H](c2cn3cc(C4CC4)ccc3n2)N(c2cc(NCc3cnc4[nH]cc(Cl)c4c3)ncn2)C1 [Example 137, (3S,5R)-1-(6-(((3-chloro-1H-pyrrolo[2,3-b]pyridin-5-yl)methyl)amino)pyrimidin-4-yl)-5-(6-cyclopropylimidazo[1,2-a]pyridin-2-yl)pyrrolidin-3-ol] | 50 to 500 nM
26 | O=C(/C=C/c1cccc(Cl)c1)Nc1cc(NCc2cn3cc(C4CC4)ccc3n2)ccn1 [Example 114, (E)-3-(3-chlorophenyl)-N-(4-(((6-cyclopropylimidazo[1,2-a]pyridin-2-yl)methyl)amino)pyridin-2-yl)acrylamide] | 5 to 50 nM
27 | O[C@H]1C[C@H](c2cn3cc(C4CC4)ccc3n2)N(c2cc(NCc3cc4c(Cl)c[nH]c4cc3F)ncn2)C1 [Example 139, (3S,5R)-1-(6-(((3-chloro-6-fluoro-1H-indol-5-yl)methyl)amino)pyrimidin-4-yl)-5-(6-cyclopropylimidazo[1,2-a]pyridin-2-yl)pyrrolidin-3-ol] | 50 to 500 nM
28 | CC(=O)OCONC(=N)c1cc(C)c(CNc2cc(OCc3cn4cc(C5CC5)ccc4n3)ncn2)c(C)c1 [Example 90, ((4-(((6-((6-cyclopropylimidazo[1,2-a]pyridin-2-yl)methoxy)pyrimidin-4-yl)amino)methyl)-3,5-dimethylbenzimidamido)oxy)methyl acetate] | 500 to 9000 nM
